Bounds are passed on as bounds.

We go through one compound from patent publication US10766908B2, “Calcium L-lactate frameworks as naturally degradable carriers” (priority 2017, dated 2020).

This data set in a line: Slow release of cis-1,3-dichloropropene under air flow, sample weight monitored by thermogravimetric instrument. Format: physicochemical. As to conditions: air flow of 1.0 cm^3 min^−1, 25° C. The method, then: Here we present the use of MOF-1201 for this purpose Fumigant cis-1,3-dichloropropene has been chosen as an example. Static adsorption isotherm of cis-1,3-dichloropropene in MOF-1201 at 25° C. is shown in FIG. 3c, displaying a sharp uptake of 1.4 mmol g^−1 (13 wt %) in low partial pressure range (P/P0=0.1), attributed to adsorption within the micropores. […] In contrast, the cis-1,3-dichloropropene encapsulated in MOF-1201 released in a much slower manner, with 80% of the total (10.5 wt %) released in 100,000 min g^−1, corresponding to 100 times slower compared with liquid cis-1,3-dichloropropene under the same conditions.
Slow release experiments were carried out using the TA Q500 thermal analysis system under constant air flow rate of 1 cm^3 min ^−1.

For `Cl/C=C\CCl` [liquid cis-1,3-dichloropropene, cis-1,3-dichloropropene], the “time for 80% of the total weight to be released/evaporated” value was ≤ 1,000 min g^−1.
